Drawing on PubChem BioAssay (NCI), this text covers TGI for 18 compounds.

Holding throughout (assay): growth of human tumour cells (NCI), 48 h
Assay [1] concerns DMS 114 small cell lung.
The subject of assay [2] is DMS 273 small cell lung.
The subject of assay [3] is KM20L2 colon.
The subject of assay [4] is HOP-92 NSCLC.
Assay [5] relates to SN12C renal.
The test system of assay [6] is DLD-1 colon.
Assay [7] deals with SF-295 CNS.
Assay [8] relates to 786-0 renal.
The subject of assay [9] is HCT-15 colon.
Assay [10] concerns CAKI-1 renal.
Assay [11] relates to BT-549 breast.
For assay [12], the system named is PC-3 prostate.
The subject of assay [13] is MDA-N.

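A five-concentration, 48-hour dose response in 96-well plates underlies each endpoint, interpolated linearly between surrounding concentrations. TGI marks complete inhibition of growth.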

For `CCOC(=O)CC1COc2ccc3c(c21)OCO3` (stereo not given), the TGI in assay [1], in assay [2], in [3], in assay [4], in [5] and in [6] was greater than 100 µM throughout. Also, the TGI in assay [7], in assay [8] and in assay [9] was greater than 100 µM throughout.
`CCOC(=O)C1SC(=Nc2ccc(OC)c(OC)c2)N=C1C` (stereo not given): the TGI in assay [10] is greater than 100 µM; in assay [1], 80.5 µM; in [2], greater than 100 µM; in assay [3], 76.3 µM; in assay [4], greater than 100 µM; in assay [5], greater than 100 µM. For the same compound, the TGI in assay [6] was greater than 100 µM; in [7] it was greater than 100 µM; in assay [8], 90.2 µM; in [9], greater than 100 µM.
With `CC(C)C(=O)N1Cc2cc(Cl)cc(Cl)c2OC(=O)c2ccccc21`, the TGI in assay [10] was 64 µM; in assay [1], 74 µM; in [2], greater than 100 µM; in [3], 57.8 µM; in [4], 62.7 µM; in assay [5], greater than 100 µM. Besides, the TGI in assay [6] is greater than 100 µM; in assay [7], greater than 100 µM; in assay [8], greater than 100 µM; in assay [9], 85.9 µM.
As to `O=C(/C=C\c1cccc2ccccc12)c1ccc(F)cc1`, the TGI in [10] was found to be 35.3 µM; in [1], 29.5 µM; in assay [2], 29.4 µM; in [3], 31.1 µM; in [4], 39.8 µM; in [5] it was 32.3 µM. Further, the TGI amounted to 37.6 µM in assay [6], 41.1 µM in [7], 32.1 µM in [8] and 31.8 µM in assay [9].
For `CC(=O)OCC1OC(n2ccc(=O)[nH]c2=O)C(OC(C)=O)C(OC(C)=O)C1OC(C)=O` (stereo not given), the TGI in [10], in [1], in assay [2], in [3], in [4] and in assay [5] was greater than 100 µM throughout. Further, the TGI in assay [6], in [7], in [8] and in assay [9] was greater than 100 µM throughout.
Take `COc1ccc(C2=NN(c3ccccc3)C[N+](c3ccc(C)cc3)=N2)cc1`: the TGI in assay [1] was 65.1 µM; in [2], greater than 10 µM; in assay [3], greater than 100 µM; in assay [5] it was greater than 100 µM; in assay [6] it was greater than 100 µM; in [7] it was greater than 100 µM. For the same compound, the TGI in assay [8] and in assay [9] was greater than 100 µM throughout.
For the compound `O=C(Nc1ccc(Cl)cc1C(F)(F)F)C(=O)C1CCCS1(=O)=O` (stereo not given), the TGI in assay [10] is greater than 100 µM; in [1], greater than 100 µM; in [3] it was greater than 100 µM; in assay [4], greater than 10 µM; in assay [5] it was greater than 100 µM; in assay [6], greater than 100 µM. Moreover, the TGI in assay [7], in assay [8] and in assay [9] was greater than 100 µM in each case.
`CCC(C)C(N)C(=O)NC(CC(N)=O)C(=O)NC(CC(C)C)C(=O)NC(CCCCN)C(=O)NC(C)C(=O)NC(CC(C)C)C(=O)NC(C)C(=O)NC(C)C(=O)NC(CC(C)C)C(=O)NC(C)C(=O)NC(CCCCN)C(=O)NC(CCCCN)C(=O)NC(C(=O)NC(CC(C)C)C(N)=O)C(C)CC` (stereo not given): the TGI in [10] is 22.5 µM; in [1] it was 28.1 µM; in assay [2] it was 17 µM; in assay [3] it was greater than 58.6 µM; in assay [4], 5.38 µM; in assay [5] it was 26.4 µM. Further, the TGI was 25 µM in [6], 35.3 µM in assay [7], 13.7 µM in assay [8] and 31.8 µM in assay [9].
In the case of `O=C(O)/C(Cl)=C(\Cl)C(=O)c1ccccc1`, the TGI in [10], in assay [1], in assay [2], in assay [3], in [4] and in [5] was greater than 100 µM each time. In addition, the TGI in assay [6], in assay [7], in [8] and in assay [9] was greater than 100 µM each time.
As for `CC(=O)OC(CC1(C)C(C)CCC23COC(=O)C2=CCCC31)c1ccoc1` (stereo not given), the TGI in assay [1] is greater than 100 µM; in assay [3] it was 58.7 µM; in assay [4], 52.5 µM; in assay [5] it was 71.8 µM; in assay [6] it was greater than 100 µM; in assay [7], greater than 100 µM. The TGI turned out to be 32.2 µM in [8] and 56.2 µM in [9].
Turning to `CCOC(=O)C(=O)C=P(c1ccccc1)(c1ccccc1)c1ccccc1`, the TGI in assay [10], in assay [1], in assay [2], in assay [3], in assay [4] and in [5] was greater than 100 µM throughout. Besides, the TGI in [6], in [7], in assay [8] and in assay [9] was greater than 100 µM each time.
As to `CCOC(=O)Cn1c2ccccc2c(=O)c2cc(C)c(C)c(C#N)c21`, the TGI in [2], in assay [3], in [4], in assay [5], in [6] and in [7] was greater than 100 µM each time. Besides, the TGI in assay [8] and in assay [9] was greater than 100 µM each time.
Regarding `CC(CCC[C@H](C)CO)[C@H]1[C@@H](O)C(O)C2[C@@H]3C[C@@H](O)C4(O)C[C@@H](O)CC[C@]4(C)C3CC[C@@]21C` (stereo not given in full), the TGI in assay [10], in [1], in assay [2], in assay [3], in [4] and in assay [5] was greater than 100 µM throughout. Moreover, the TGI in [6], in [7], in assay [8] and in assay [9] was greater than 100 µM each time.
Regarding `NCCSc1cc(O)c2c(c1N)C(=O)c1ccccc1C2=O`, the TGI in assay [10], in assay [3], in assay [4], in [5], in assay [6] and in assay [7] was greater than 100 µM in each case. Besides, the TGI in assay [8] and in assay [9] was greater than 100 µM in each case.
Regarding `COc1c(C)cc2c(C(C)C)c(O)c(O)c(C=O)c2c1O`, the TGI in assay [1] was 37.9 µM; in [2] it was 59.1 µM; in [3], 88.1 µM; in assay [4], greater than 100 µM; in assay [5], 75.8 µM; in assay [6], greater than 100 µM. Moreover, the TGI was 86 µM in assay [7], greater than 100 µM in assay [8] and greater than 100 µM in [9].
`O=C(Cc1ccccc1F)NC1=C(Cl)C(=O)c2ccccc2C1=O`: the TGI turned out to be 9.42 µM in [10]; 0.543 µM in assay [1]; 11.5 µM in [2]; 29.8 µM in assay [3]; 2.49 µM in [4]; 16.8 µM in assay [5]. The TGI in assay [11] came to 7.26 µM; in assay [12], 11.9 µM; in [7] it was 11.8 µM; in assay [8], 9.68 µM; in assay [9], 13.3 µM; in [13], 11.8 µM.
`N#CCc1c(-c2ccccc2)n(S(=O)(=O)c2ccccc2)c2ccccc12`: the TGI in assay [10], in assay [1], in assay [2], in [3], in [4] and in [6] was greater than 100 µM throughout. Further, the TGI in assay [7], in assay [8] and in assay [9] was greater than 100 µM throughout.
`COC(=O)c1cc(C(=O)OC)c(CC(=O)C(=O)NC2C3CC4CC(C3)CC2C4)nc1CC(=O)C(=O)NC1C2CC3CC(C2)CC1C3` (stereo not given): the TGI in assay [10], in [1], in assay [2], in assay [3], in assay [4] and in [5] was greater than 100 µM throughout. Also, the TGI in assay [6], in assay [7], in [8] and in [9] was greater than 100 µM throughout.
